Experimental data from patent US20260256786A1 (United Therapeutics Corporation, priority 2020, published 2026).
Where two headings read alike, the source gives them in different places.

Experiments:
[1] = Pharmacokinetics of insufflated ImaT powder in rat: lung sections; assay type: in vivo, Sprague Dawley rats; settings: for concentration at 0.08 h / concentration at 1 h / concentration at 4 h / concentration at 8 h: male, Sprague Dawley, rat, lung, inhaled, 4 mg/kg
Description: Lungs were also harvested at specified time points (see Table 4). […] Lungs werethen harvested. The left lobe was sectioned into three parts; upper, middle and bottom. Each section was separated into two equal pieces. Each piece was weighed and individually placed in a properly labeled tube. Lungs samples were snap-frozen and stored at −80° C. Lung samples were then homogenized in PBS, 0.1% Triton X-100 (200 mg of tissue/mL). The homogenate samples were stored at −80° C.

[2] = ImaT 4 mg/kg insufflation, 24 h time point
Description: After dosing, blood samples and lungs were collected at specific time points over a period of 24 hours.
The rats were anesthetized with a mixture of 1.5 to 3% isoflurane USP (Abbott Laboratories, Montreal Canada) in 100% oxygen, and placed on a homoeothermic heating pad to maintain body temperature at 37±1° C.
For all groups, the test article was insufflated using an automated insufflation device. The insufflator tip was inserted just above the bifurcation of the trachea and the discharge of powder was timed to the inhalation cycle of the animal. After dosing, the animals were allowed to recover from anesthesia under surveillance before being returned to their respective cages.
Blood samples of 0.5 mL were collected from the jugular vein at specified time points (see Table 4).
Blood samples were centrifuged (3000 r.p.m. for 10 min., 2-8° C.) and plasma was transferred into an Eppendorf tube labeled with the Study Number, animal I.D., dose group and time point.
For each group, data in this report is expressed as mean±S.E.M.

[3] = section 1 (homogenate), read-out: Lung conc, Section 1
[4] = section 2 (homogenate), read-out: Lung conc, Section 2
[5] = section 3 (homogenate), read-out: Lung conc, Section 3
[6] = section 4 (homogenate), read-out: Lung conc, Section 4
[7] = section 5 (homogenate), read-out: Lung conc, Section 5
[8] = section 6 (homogenate), read-out: Lung conc, Section 6

For Cc1ccc(NC(=O)c2ccc(CN3CCN(C)CC3)cc2)cc1Nc1nccc(-c2cccnc2)n1 [Imatinib, 4-[(4-methylpiperazin-1-yl)methyl]-N-[4-methyl-3-[(4-pyridin-3-ylpyrimidin-2-yl)amino]phenyl]benzamide], the “Imatinib concentrations in the lung” value ([1]; ImaT 4 mg/kg insufflation, 24 hour time point) was “below the limit of detection”, the concentration at 0.08 h [1, 3] was 201 ng/mL and the concentration at 1 h [1, 3] was 260 ng/mL. For the same molecule, the concentration at 4 h [1, 3] was 62 ng/mL, the concentration at 8 h [1, 3] was 27.2 ng/mL and the concentration at 0.08 h [1, 4] was 1530 ng/mL. The concentration at 1 h [1, 4] was 638 ng/mL, the concentration at 4 h [1, 4] was 51 ng/mL and the concentration at 8 h [1, 4] was 24.4 ng/mL. The concentration at 0.08 h [1, 5] was 888 ng/mL, the concentration at 1 h [1, 5] was 307 ng/mL and the concentration at 4 h [1, 5] was 55.9 ng/mL. For the same molecule, the concentration at 8 h [1, 5] was 21.1 ng/mL, the concentration at 0.08 h [1, 6] was 3000 ng/mL and the concentration at 1 h [1, 6] was 510 ng/mL. The concentration at 4 h [1, 6] was 68.4 ng/mL, the concentration at 8 h [1, 6] was 24.6 ng/mL and the concentration at 0.08 h [1, 7] was 2580 ng/mL. For the same molecule, the concentration at 1 h [1, 7] was 196 ng/mL, the concentration at 4 h [1, 7] was 69.5 ng/mL and the concentration at 8 h [1, 7] was 22.1 ng/mL. The concentration at 0.08 h [1, 8] was 4740 ng/mL, the concentration at 1 h [1, 8] was 314 ng/mL and the concentration at 4 h [1, 8] was 66.3 ng/mL. The concentration at 8 h [1, 8] was 24.6 ng/mL, the “Time of maximal lung concentration of Imatinib” value ([1]; post-inhalation of ImaT) was 5 min and the “Plasma concentration of Imatinib” value [2] was “below the limit of detection”.
